#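 Where inhibition never reached the appropriate level, the endpoint shown equals the highest concentration tested. Otherwise, values were interpolated linearly from a five-concentration, 48-hour dose response in 96-well plates. At the GI50, growth is halved.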 The source made the active and inactive calls. Cut-off read from the data, not from the text of the source: active = GI50 up to about 1.1 µM and inactive = higher.
# How the values were obtained:
# Assay in all cases: growth of human tumour cells (NCI), 48 h
# A498 = tested on: A498
# CAKI-1 = tested on: CAKI-1
# DU-145 = tested on: DU-145
# EKVX = tested on: EKVX
# HCC 2998 = tested on: HCC 2998
# HOP-62 = tested on: HOP-62
# Hs-578T = tested on: Hs-578T
# LOX IMVI = tested on: LOX IMVI
# Malme-3M = tested on: Malme-3M
# PC-3 = tested on: PC-3
# RPMI-8226 = tested on: RPMI-8226
# SF-268 = tested on: SF-268
# SF-539 = tested on: SF-539
# SK-MEL-28 = tested on: SK-MEL-28
# SK-MEL-5 = tested on: SK-MEL-5
# SN12C = tested on: SN12C
# T47D = tested on: T47D
# UACC-257 = tested on: UACC-257
# UO-31 = tested on: UO-31
# HT-29 = tested on: HT-29
Compound,GI50 (A498),GI50 (CAKI-1),GI50 (DU-145),GI50 (EKVX),GI50 (HCC 2998),GI50 (HOP-62),GI50 (Hs-578T),GI50 (LOX IMVI),GI50 (Malme-3M),GI50 (PC-3),GI50 (RPMI-8226),GI50 (SF-268),GI50 (SF-539),GI50 (SK-MEL-28),GI50 (SK-MEL-5),GI50 (SN12C),GI50 (T47D),GI50 (UACC-257),GI50 (UO-31),GI50 (HT-29)
Cc1noc(NC(=O)Nc2ccccc2F)c1C#N,> 35 µM (inactive),> 100 µM (inactive),49.8 µM (inactive),11.6 µM (inactive),2.12 µM (inactive),22.3 µM (inactive),> 34.4 µM (inactive),58.5 µM (inactive),28.8 µM (inactive),> 21.5 µM (inactive),> 74.8 µM (inactive),12.4 µM (inactive),> 100 µM (inactive),> 100 µM (inactive),45.7 µM (inactive),16.1 µM (inactive),18.3 µM (inactive),30.9 µM (inactive),0.918 µM (active),–
Cc1cc(-c2nc3ccc(F)cc3s2)ccc1NC(=O)C(N)CCCCN (configuration not stated),11 µM (inactive),9.64 µM (inactive),12.3 µM (inactive),12.6 µM (inactive),1.26 µM (inactive),3.22 µM (inactive),5.12 µM (inactive),2.3 µM (inactive),18.2 µM (inactive),9.53 µM (inactive),3.31 µM (inactive),6.7 µM (inactive),3.27 µM (inactive),18.4 µM (inactive),9.68 µM (inactive),7.76 µM (inactive),0.027 µM (active),12.8 µM (inactive),2.69 µM (inactive),3.54 µM (inactive)
CC(=O)NC1C(OCC(=O)NCCNc2ccc([N+](=O)[O-])c3[nH]c4ccccc4c(=O)c23)C(O)C(CO)OC1(C)OCc1ccccc1 (configuration not stated),> 100 µM (inactive),> 100 µM (inactive),> 100 µM (inactive),> 100 µM (inactive),> 100 µM (inactive),> 100 µM (inactive),> 100 µM (inactive),> 100 µM (inactive),> 10 µM (inactive),> 100 µM (inactive),> 100 µM (inactive),> 100 µM (inactive),> 100 µM (inactive),–,> 100 µM (inactive),> 100 µM (inactive),> 100 µM (inactive),> 100 µM (inactive),> 100 µM (inactive),> 100 µM (inactive)
CC(C)Oc1cccc(N2C(NCCc3c[nH]c4ccccc34)=Nc3ccncc3S2(=O)=O)c1,9.31 µM (inactive),42.1 µM (inactive),22.5 µM (inactive),72.8 µM (inactive),24.4 µM (inactive),> 100 µM (inactive),3.9 µM (inactive),52.1 µM (inactive),32.4 µM (inactive),6.4 µM (inactive),5.51 µM (inactive),15.7 µM (inactive),33.7 µM (inactive),8.43 µM (inactive),9.59 µM (inactive),> 100 µM (inactive),7.21 µM (inactive),9.53 µM (inactive),81.8 µM (inactive),5.01 µM (inactive)
O=[N+]([O-])c1ccc2c(c1)c(OCc1ccccc1)nn2Cc1ccccc1,33 µM (inactive),> 100 µM (inactive),> 100 µM (inactive),–,58.9 µM (inactive),36.3 µM (inactive),52.8 µM (inactive),> 100 µM (inactive),78.5 µM (inactive),63.1 µM (inactive),> 100 µM (inactive),> 100 µM (inactive),34.5 µM (inactive),72.6 µM (inactive),58.2 µM (inactive),> 100 µM (inactive),> 100 µM (inactive),> 100 µM (inactive),> 100 µM (inactive),> 100 µM (inactive)
CSc1c(C#N)c(=O)n(N)c2c1c(C)nn2-c1ccccc1,21.4 µM (inactive),19.9 µM (inactive),37.2 µM (inactive),26.7 µM (inactive),18.1 µM (inactive),–,51.4 µM (inactive),20.6 µM (inactive),22.4 µM (inactive),19.7 µM (inactive),21.9 µM (inactive),42 µM (inactive),19 µM (inactive),35.4 µM (inactive),15.3 µM (inactive),34.4 µM (inactive),25.8 µM (inactive),22 µM (inactive),18.5 µM (inactive),24.7 µM (inactive)
CC(C)(CCCCC(C)(C)NCC1COc2ccccc2O1)NCC1COc2ccccc2O1 (configuration not stated),> 10 µM (inactive),> 10 µM (inactive),> 10 µM (inactive),> 10 µM (inactive),2.42 µM (inactive),> 10 µM (inactive),5.66 µM (inactive),3.33 µM (inactive),3.15 µM (inactive),> 10 µM (inactive),> 10 µM (inactive),5.45 µM (inactive),1.85 µM (inactive),2.16 µM (inactive),1.6 µM (inactive),> 10 µM (inactive),7.83 µM (inactive),2.04 µM (inactive),–,2.47 µM (inactive)
CC1(C)CNC(c2ccc3c(c2)Cc2cc(C4=NC(C)(C)CN4)ccc2-3)=N1,77.8 µM (inactive),> 100 µM (inactive),> 100 µM (inactive),60 µM (inactive),26.2 µM (inactive),33.5 µM (inactive),64.7 µM (inactive),37 µM (inactive),24.7 µM (inactive),39.8 µM (inactive),25.2 µM (inactive),34.6 µM (inactive),–,38.7 µM (inactive),60.7 µM (inactive),36.6 µM (inactive),61.2 µM (inactive),31 µM (inactive),> 100 µM (inactive),32.1 µM (inactive)
O=Cc1ccc2c(c1)CC1(C2)Cc2ccc3c(c2C1)CCC3 (configuration not stated),23.8 µM (inactive),21.1 µM (inactive),22.1 µM (inactive),24.3 µM (inactive),24.3 µM (inactive),9.4 µM (inactive),7.41 µM (inactive),4.73 µM (inactive),6.22 µM (inactive),5.51 µM (inactive),6.47 µM (inactive),12.9 µM (inactive),9.02 µM (inactive),12.7 µM (inactive),4.81 µM (inactive),8.45 µM (inactive),18.2 µM (inactive),16 µM (inactive),11.9 µM (inactive),19 µM (inactive)
CCOC(=O)CNC1=Nc2ccccc2C(=O)N2CSCC12 (configuration not stated),> 100 µM (inactive),> 100 µM (inactive),> 100 µM (inactive),> 100 µM (inactive),> 100 µM (inactive),> 100 µM (inactive),> 100 µM (inactive),> 100 µM (inactive),> 100 µM (inactive),> 100 µM (inactive),> 100 µM (inactive),> 100 µM (inactive),–,> 100 µM (inactive),> 100 µM (inactive),> 100 µM (inactive),> 100 µM (inactive),> 100 µM (inactive),> 100 µM (inactive),> 100 µM (inactive)
CC1(C#N)CC(C)(C)C(/C=C2/CC(C)(C)C(/C=C3/OC(=N)CC3(C)C)=N2)=N1 (configuration not stated),10.5 µM (inactive),40 µM (inactive),33.7 µM (inactive),21.7 µM (inactive),32.2 µM (inactive),23.8 µM (inactive),19.2 µM (inactive),36.2 µM (inactive),0.564 µM (active),30.6 µM (inactive),20 µM (inactive),24.3 µM (inactive),62.2 µM (inactive),51.9 µM (inactive),16.6 µM (inactive),31.9 µM (inactive),22.7 µM (inactive),18.8 µM (inactive),–,27.2 µM (inactive)
CC(=O)N(C(=O)CC(=O)N/N=C\c1ccc(Br)c(N(CCC#N)CCC#N)c1)c1ccc(Cl)cc1,33.4 µM (inactive),44.7 µM (inactive),30.2 µM (inactive),60.5 µM (inactive),31 µM (inactive),44.7 µM (inactive),52.5 µM (inactive),33.9 µM (inactive),51.6 µM (inactive),96.6 µM (inactive),81.8 µM (inactive),> 100 µM (inactive),71.4 µM (inactive),> 100 µM (inactive),–,7 µM (inactive),43.3 µM (inactive),–,24.8 µM (inactive),–
COc1ccc2c(c1)nc1n2C(c2c(F)cccc2F)SC1 (configuration not stated),> 100 µM (inactive),> 100 µM (inactive),> 100 µM (inactive),36.1 µM (inactive),55.1 µM (inactive),76.4 µM (inactive),35.2 µM (inactive),45.6 µM (inactive),–,27.8 µM (inactive),30.6 µM (inactive),32.2 µM (inactive),47.3 µM (inactive),> 100 µM (inactive),24.2 µM (inactive),> 100 µM (inactive),71.6 µM (inactive),45.7 µM (inactive),56 µM (inactive),47.3 µM (inactive)
COc1c(O)cc(C(=O)O[C@@H]2Cc3c(O)cc(O)cc3O[C@@H]2c2cc(O)c(O)c(O)c2)cc1O,94.6 µM (inactive),> 100 µM (inactive),20.3 µM (inactive),24.8 µM (inactive),97.1 µM (inactive),30.7 µM (inactive),> 100 µM (inactive),19.7 µM (inactive),> 100 µM (inactive),68.1 µM (inactive),24.3 µM (inactive),20.5 µM (inactive),–,> 100 µM (inactive),26.7 µM (inactive),19.7 µM (inactive),26.2 µM (inactive),53.3 µM (inactive),23 µM (inactive),18.2 µM (inactive)
